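Dose response: 5 concentrations. Exposure: 48 h. Format: 96-well plates. Endpoint: linear interpolation; highest concentration if not reached. GI50: concentration for 50% inhibition of growth. At the TGI there is no net growth.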
What was measured:
Test in all cases: NCI anticancer screen, dose series, 48 h
786-0 renal = test system: 786-0 renal
CCRF-CEM leukemia = test system: CCRF-CEM leukemia
COLO 205 colon = test system: COLO 205 colon
HOP-92 NSCLC = test system: HOP-92 NSCLC
HT29 colon = test system: HT29 colon
MOLT-4 leukemia = test system: MOLT-4 leukemia
NCI-H460 lung = test system: NCI-H460 lung
SF-295 CNS = test system: SF-295 CNS
SF-539 CNS = test system: SF-539 CNS
T-47D breast = test system: T-47D breast

Structure (SMILES) | TGI (786-0 renal) [µM] | TGI (CCRF-CEM leukemia) [µM] | TGI (COLO 205 colon) [µM] | TGI (HOP-92 NSCLC) [µM] | TGI (HT29 colon) [µM] | TGI (MOLT-4 leukemia) [µM] | TGI (NCI-H460 lung) [µM] | TGI (SF-295 CNS) [µM] | TGI (SF-539 CNS) [µM] | GI50 (786-0 renal) [µM] | GI50 (COLO 205 colon) [µM] | GI50 (HOP-92 NSCLC) [µM] | GI50 (HT29 colon) [µM] | GI50 (MOLT-4 leukemia) [µM] | GI50 (NCI-H460 lung) [µM] | GI50 (SF-295 CNS) [µM] | GI50 (T-47D breast) [µM] | TGI (T-47D breast) [µM]
CN/N=C(\C)CC(=O)Nc1cccc(Cl)c1C | > 100 | > 100 | > 100 | > 100 | > 100 | > 100 | > 100 | > 100 | > 100 | – | – | – | – | – | – | – | – | –
COC(=O)C(C(=O)C(=O)Nc1ccccc1OC)c1csc(-n2nc(-c3ccccc3)cc2-c2ccccc2)n1 (stereo not given) | > 100 | > 100 | > 100 | > 100 | > 100 | > 100 | > 100 | – | – | – | – | – | – | – | – | – | – | –
COC1OC(C)C(OC(=O)C(C)(C)C)C(C)(O)C1O (stereo not given) | > 100 | > 100 | > 100 | > 100 | > 100 | > 100 | > 100 | > 100 | > 100 | – | – | – | – | – | – | – | – | –
CC1CC2C3CC(F)C4=CC(=O)C=CC4(C)C3(F)C(O)CC2(C)C1(O)C(=O)CO (stereo not given) | > 100 | > 100 | > 100 | > 100 | > 100 | > 100 | > 100 | > 100 | > 100 | – | – | – | – | – | – | – | – | –
O=C(NCCNCCO)c1ccc2oc3cc4ccccc4c(=O)n3c2c1 | 44.4 | – | > 50 | 29.6 | > 50 | > 50 | 15.4 | > 50 | – | 14.6 | 12 | 7.96 | 16.1 | 6.88 | 7.08 | 14.8 | 10.2 | 27.4
COc1ccc(-c2c(N)[n+]([O-])c3cc(C)c(C)cc3[n+]2[O-])cc1OC | > 100 | > 100 | 50.3 | – | > 100 | > 100 | > 100 | > 100 | > 100 | – | – | – | – | – | – | – | – | –
O=C1C=C(Br)C(=O)C(Br)=C1 | > 100 | > 81.6 | > 100 | > 100 | > 100 | > 86.2 | > 100 | > 100 | > 100 | – | – | – | – | – | – | – | – | –
O=C(O)C1Cc2nc[nH]c2CN1 (stereo not given) | > 100 | > 100 | > 100 | > 100 | > 100 | > 100 | > 100 | > 100 | > 100 | – | – | – | – | – | – | – | – | –
COc1cc2c(cc1OC)-c1c(cc(OC)c(OC)c1OC)C2=O | > 100 | > 100 | > 100 | > 100 | > 100 | > 100 | > 100 | > 100 | > 100 | – | – | – | – | – | – | – | – | –
O=C1/C(=C\c2ccccc2)c2ccccc2N1Cc1ccccc1 | 23 | 12.6 | 33.3 | 13.8 | 14.4 | 5.4 | 19 | 16.2 | – | – | – | – | – | – | – | – | – | 15.1
c1ccc(-c2cc(-c3cc(-c4ccccn4)[nH]n3)n[nH]2)nc1 | > 100 | – | > 100 | > 100 | > 100 | > 100 | > 100 | > 100 | > 100 | – | – | – | – | – | – | – | – | > 100
CC(C)OCN1COCN=C1NC#N | > 100 | – | 47.9 | > 100 | > 100 | > 100 | > 100 | > 100 | > 100 | – | – | – | – | – | – | – | – | –
O=C1CCC(=O)c2cc(Br)ccc2N1 | > 100 | > 100 | > 100 | > 100 | > 100 | > 100 | > 100 | > 100 | > 100 | – | – | – | – | – | – | – | – | –
O=C(Nc1cc(C(F)(F)F)ccc1Cl)C(=O)C(C(=O)c1ccc2ccccc2c1)C1OC(=O)c2ccccc21 (stereo not given) | 17.7 | 33.7 | 37.3 | 28.1 | 31.7 | 9.16 | 20.7 | 27.6 | 6.94 | – | – | – | – | – | – | – | – | –
N#Cc1c(NC(=O)CCC(=O)O)ccc2ccccc12 | > 100 | – | > 100 | > 100 | > 100 | – | > 100 | > 100 | > 100 | – | – | – | – | – | – | – | – | > 100
C=CC1=C(C)C2=NC1=CC1=NC(=C(CC)/C1=C/O)C=C1C=C3C(=O)C(C(=O)OC)C(=C4NC(=C2)C(C)C4CCC(=O)OC/C=C(\C)CCCC(C)CCCC(C)CCCC(C)C)C3=N1 (stereo not given) (tested in a mixture with another compound) | > 100 | – | > 100 | > 100 | > 100 | > 100 | > 100 | > 100 | > 100 | – | – | – | – | – | – | – | – | > 100
COc1ccc(C(=O)C(C(=O)C(=O)Nc2nc3ccc(OC)cc3s2)c2ccc(OC)cc2)cc1 (stereo not given) | > 100 | > 100 | > 100 | > 100 | > 100 | > 100 | > 100 | > 100 | > 100 | – | – | – | – | – | – | – | – | –
CC(NC1CCC[C@H]1O)c1ccccc1 (mixture of isomers) | > 100 | > 100 | > 100 | > 100 | > 100 | > 100 | > 100 | > 100 | > 100 | – | – | – | – | – | – | – | – | –
C=C(C)C1CC[C@]2(C(=O)O)CCC3(C)[C@H](CCC4[C@@]5(C)CC[C@H](OC6OC(CO)C(O)C6OC6OC(C)C(O)C(O)C6O)[C@@](C)(CO)C5CC[C@]43C)C12 (stereo not given in full) | > 100 | > 100 | > 100 | – | > 100 | > 100 | > 100 | > 100 | > 100 | – | – | – | – | – | – | – | – | –
COC(=O)C1CCc2c(OC)ccc(OC)c2C1=O (stereo not given) | > 100 | > 100 | > 100 | > 100 | > 100 | > 100 | > 100 | > 100 | > 100 | – | – | – | – | – | – | – | – | –
COc1cc(C2C(C(=O)O)=C(C)Oc3cc4c(cc32)OCO4)cc(OC)c1OC (stereo not given) | > 100 | > 100 | 60.6 | > 100 | > 100 | > 100 | > 100 | 59.5 | – | – | – | – | – | – | – | – | – | –
CC(=O)Nc1ccc(/C=c2\sc3nnc(/C=C/c4ccccc4)n3c2=O)cc1 | > 50 | > 50 | > 50 | – | – | > 50 | > 50 | > 50 | > 50 | – | – | – | – | – | – | – | – | –
COCCN1C2=CCCCC2=Nc2c(N)nc(N)nc21 | > 100 | > 100 | > 100 | > 100 | > 100 | > 100 | > 100 | > 100 | > 100 | – | – | – | – | – | – | – | – | –
